Experiment [1] concerns T-cell. Description: Cytotoxicity in HH T-lymphocytic leukemia cells. The experiment is classed as functional, cell-based. To be noted: Homo sapiens.
Experiment [2] has as its target T-cell surface glycoprotein CD4 (Homo sapiens) (UniProt P01730). In words: Binding Intensity against CD4+ HH-leukemic cells at 5 ug/mL. In kind it is cell-based.
Experiment [3] relates to HH-leukemic. Description: Binding Intensity against CD11C+ HH-leukemic cells at 5 ug/mL. The experiment is classed as cell-based. The settings on record: Homo sapiens.
For experiment [4], the target named is T1, Receptor-type tyrosine-protein phosphatase C (Homo sapiens) (UniProt P08575).
T1 sequence (whole entry): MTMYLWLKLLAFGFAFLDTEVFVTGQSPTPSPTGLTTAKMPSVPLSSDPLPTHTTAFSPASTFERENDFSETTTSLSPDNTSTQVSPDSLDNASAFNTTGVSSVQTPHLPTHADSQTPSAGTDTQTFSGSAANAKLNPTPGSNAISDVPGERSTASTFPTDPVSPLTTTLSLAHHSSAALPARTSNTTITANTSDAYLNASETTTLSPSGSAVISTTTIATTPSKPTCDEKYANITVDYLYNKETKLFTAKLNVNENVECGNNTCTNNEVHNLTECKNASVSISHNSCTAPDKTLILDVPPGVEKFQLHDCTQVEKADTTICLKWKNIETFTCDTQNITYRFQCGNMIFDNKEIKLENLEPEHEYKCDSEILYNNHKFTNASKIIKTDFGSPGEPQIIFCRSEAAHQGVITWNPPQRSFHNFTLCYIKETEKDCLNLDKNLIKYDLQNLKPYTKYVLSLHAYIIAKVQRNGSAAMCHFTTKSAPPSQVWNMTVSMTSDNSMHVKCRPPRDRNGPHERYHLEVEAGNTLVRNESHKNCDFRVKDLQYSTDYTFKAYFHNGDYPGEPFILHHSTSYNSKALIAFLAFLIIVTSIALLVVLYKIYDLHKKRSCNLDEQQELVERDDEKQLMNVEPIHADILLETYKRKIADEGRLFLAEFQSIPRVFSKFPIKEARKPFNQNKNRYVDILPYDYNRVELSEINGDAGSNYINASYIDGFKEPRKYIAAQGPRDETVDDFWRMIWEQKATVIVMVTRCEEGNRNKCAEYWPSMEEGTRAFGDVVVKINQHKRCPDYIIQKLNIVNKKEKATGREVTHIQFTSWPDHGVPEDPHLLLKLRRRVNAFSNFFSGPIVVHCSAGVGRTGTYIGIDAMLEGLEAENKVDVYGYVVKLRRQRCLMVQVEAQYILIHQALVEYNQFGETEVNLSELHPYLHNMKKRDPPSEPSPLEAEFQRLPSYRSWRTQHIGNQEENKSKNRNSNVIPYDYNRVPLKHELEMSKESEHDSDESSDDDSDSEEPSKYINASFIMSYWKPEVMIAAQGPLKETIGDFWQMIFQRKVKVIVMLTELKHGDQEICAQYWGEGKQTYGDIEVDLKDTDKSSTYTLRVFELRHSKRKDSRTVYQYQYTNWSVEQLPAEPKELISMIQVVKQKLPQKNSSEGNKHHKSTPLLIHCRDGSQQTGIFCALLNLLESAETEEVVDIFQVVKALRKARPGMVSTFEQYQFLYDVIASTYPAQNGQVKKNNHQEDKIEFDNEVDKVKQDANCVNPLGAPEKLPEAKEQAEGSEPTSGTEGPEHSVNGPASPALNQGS
In words: Binding Intensity was determined against CD45+ HH-leukemic cells at 5 ug/mL; No change. The experiment is classed as cell-based.

In experiment [5] the test system is HH-leukemic. In words: Binding Intensity against CD11C+ HH-leukemic cells at 5 ug/mL. The settings on record: Homo sapiens. The experiment is classed as cell-based.
Experiment [6] concerns the target T-cell surface glycoprotein CD4 (Homo sapiens) (UniProt P01730). In words: Binding Intensity against CD4+ HH-leukemic cells at 5 ug/mL. The experiment is classed as cell-based.
The target of experiment [7] is T1, Receptor-type tyrosine-protein phosphatase C (Homo sapiens). Description: Binding Intensity against CD45+ HH-leukemic cells at 5 ug/mL. In kind it is cell-based.

IC50 and Binding intensity data for 28 molecules are collected here from ChEMBL document CHEMBL1134984, “Anticancer activity for 4,4'-dihydroxybenzophenone-2,4-dinitrophenylhydrazone (A-007) analogues and their abilities to interact with lymphoendothelial cell surface markers” (Bioorg Med Chem Lett, 2002).

≈ marks a conversion by molar mass, not a printed value. Calls of active or inactive are those of the source. The calls are words filed in the database; no cut-off is given here.

A word on the IC50: it is the concentration that inhibits the measured activity by half. A lower IC50 goes with greater potency in that assay.

Regarding `CS(=O)(=O)Oc1ccc(C(=NNc2ccc([N+](=O)[O-])cc2[N+](=O)[O-])c2ccc(OS(C)(=O)=O)cc2)cc1`, the IC50 in experiment [1] is over 10 µg/mL. Besides, the Binding intensity result in experiment [2] and in experiment [3] was “No change” throughout. For the same molecule, in experiment [4], the Binding intensity result was “inactive”.

With `Cl.O=C1N=C2C(=Nc3ccccc32)N1c1ccc(O)cc1`, in experiment [1], the IC50 is over 10 µg/mL. Moreover, the Binding intensity entry in experiment [2] and in experiment [3] was “No change” in each case. In addition, the Binding intensity entry in experiment [4] is “inactive”.

Consider `O=C(O)CCC/N=C(\c1ccccc1)C1C(=O)NC(=O)NC1=O`, for which, in experiment [1], the IC50 was over 10 µg/mL. The Binding intensity entry in experiment [2] and in experiment [3] was “No change” throughout. In experiment [4], the Binding intensity entry was “inactive”.

Molecule `COc1ccc(C(=NNc2ccc([N+](=O)[O-])cc2[N+](=O)[O-])c2ccc(OC)cc2)cc1` displayed an IC50 in experiment [1] of over 10 µg/mL. Further, the Binding intensity in experiment [5] and in experiment [6] was 25% each time. Also, in experiment [4], the Binding intensity result was “inactive”.

With `C/C(=N/Nc1ccc([N+](=O)[O-])cc1[N+](=O)[O-])C1C(=O)NC(=O)NC1=O`, in experiment [1], the IC50 was 3.5 µg/mL (≈ 9.99 µM). Also, the Binding intensity result in experiment [2] and in experiment [3] was “No change” throughout. Also, the Binding intensity result in experiment [4] was “inactive”.

On to `O=C1NC(=O)C(C(c2ccnc3ccccc23)C2C(=O)NC(=O)NC2=O)C(=O)N1`, for which the IC50 in experiment [1] is over 10 µg/mL. The Binding intensity entry is “No change” in experiment [2], “No change” in experiment [3] and 25% in experiment [7].

`O=C(O)CC/N=C/C1C(=O)NC(=O)NC1=O` gave an IC50 in experiment [1] of over 12 µg/mL. Moreover, the Binding intensity entry in experiment [2] and in experiment [3] was “No change” in each case. In experiment [4], the Binding intensity entry was “inactive”.

Take `O=C1NC(=O)C(/C=N\Nc2ccc([N+](=O)[O-])cc2)C(=O)N1`: the IC50 in experiment [1] is over 6 µg/mL. For the same molecule, the Binding intensity result in experiment [2] and in experiment [3] was “No change” in each case. For the same molecule, the Binding intensity entry in experiment [4] was “inactive”.

As for `C/C(=N\Nc1ccc([N+](=O)[O-])cc1)c1ccc(O)cc1`, 4.1 µg/mL (≈ 15.1 µM) corresponded to half-maximal inhibition in experiment [1] (IC50). Besides, the Binding intensity result in experiment [4] was “inactive”.

In the case of `CN1C(=O)C(/C=N\Nc2ccc([N+](=O)[O-])cc2[N+](=O)[O-])C(=O)N(C)C1=O`, in experiment [1], the IC50 is over 8 µg/mL.

For the molecule `O=C1NC(=O)C(/C(=N\Nc2ccc([N+](=O)[O-])cc2[N+](=O)[O-])c2ccccc2)C(=O)N1`, the IC50 in experiment [1] is over 10 µg/mL. For the same molecule, the Binding intensity entry in experiment [2] and in experiment [3] was “No change” each time. Further, the Binding intensity entry in experiment [4] was “inactive”.

Turning to `O=[N+]([O-])c1ccc(NN=C(c2ccccc2)c2ccccc2)c([N+](=O)[O-])c1`, the IC50 in experiment [1] is over 10 µg/mL. For the same molecule, the Binding intensity result in experiment [2] and in experiment [3] was “No change” each time. Besides, in experiment [4], the Binding intensity entry is “inactive”.

`O=C1NC(=O)C(C(c2cccnc2)C2C(=O)NC(=O)NC2=O)C(=O)N1` gave an IC50 in experiment [1] of over 10 µg/mL.

For the molecule `O=C(O)CCCCC/N=C/C1C(=O)NC(=O)NC1=O`, in experiment [1], the IC50 is over 10 µg/mL. The Binding intensity entry in experiment [2] and in experiment [3] was “No change” throughout. Also, the Binding intensity entry in experiment [4] is “inactive”.

Turning to `O=C1NC(=O)C(C2(C3C(=O)NC(=O)NC3=O)C(=O)Nc3ccccc32)C(=O)N1`, in experiment [1], the IC50 was over 10 µg/mL. Besides, the Binding intensity entry in experiment [2] and in experiment [3] was “No change” throughout. Moreover, the Binding intensity entry in experiment [4] is “inactive”.

Consider `C/C(=N/Nc1ccc([N+](=O)[O-])cc1[N+](=O)[O-])C1C(=O)N(C)C(=O)N(C)C1=O`, for which the IC50 in experiment [1] is 10 µg/mL (≈ 26.4 µM). The Binding intensity entry in experiment [3] was “No change”.

Consider `O=[N+]([O-])c1ccc(NN=C(c2ccc(OP(=O)(O)O)cc2)c2ccc(OP(=O)(O)O)cc2)c([N+](=O)[O-])c1`, for which the IC50 in experiment [1] was over 10 µg/mL. Further, the Binding intensity result in experiment [2] and in experiment [3] was “No change” each time. Also, the Binding intensity entry in experiment [4] was “inactive”.

Take `O=C(O)CCC/N=C/C1C(=O)NC(=O)NC1=O`: the midpoint of inhibition in experiment [1], the IC50, lay at 3.5 µg/mL (≈ 14.5 µM). For the same molecule, the Binding intensity result was “No change” in experiment [2], “No change” in experiment [3] and 25% in experiment [7].

In experiment [1], `O=[N+]([O-])c1cc([N+](=O)[O-])c(NN=C(c2ccc(O)cc2)c2ccc(O)cc2)cc1Cl` gave an IC50 of 1.5 µg/mL (≈ 3.5 µM). The Binding intensity result in experiment [2] and in experiment [3] was “No change” each time. Besides, the Binding intensity entry in experiment [4] was “inactive”.

`C/C(=N/Nc1ccc([N+](=O)[O-])cc1)C1C(=O)NC(=O)NC1=O`: in experiment [1], the IC50 was over 10 µg/mL. In addition, the Binding intensity entry in experiment [2] and in experiment [3] was “No change” each time. In experiment [4], the Binding intensity entry was “inactive”.

For the molecule `O=[N+]([O-])c1ccccc1NN=C(c1ccc(O)cc1)c1ccc(O)cc1`, half-maximal inhibition in experiment [1] (IC50) was put at 2.7 µg/mL (≈ 7.73 µM). The Binding intensity entry in experiment [2] and in experiment [3] was “No change” in each case. The Binding intensity entry in experiment [4] was “inactive”.

In experiment [1], `O=[N+]([O-])c1ccc(N/N=C/c2ccc(O)cc2)cc1` came in with an IC50 of 5 µg/mL (≈ 19.4 µM). The Binding intensity entry in experiment [4] was “inactive”.

`CN1C(=O)C(C2(C3C(=O)N(C)C(=O)N(C)C3=O)C(=O)Nc3ccccc32)C(=O)N(C)C1=O`: in experiment [1], the IC50 was over 10 µg/mL. The Binding intensity result in experiment [2] and in experiment [3] was “No change” in each case. Further, in experiment [4], the Binding intensity result was “inactive”.

Regarding `O=[N+]([O-])c1ccc(NN=C(c2ccc(NS(=O)(=O)c3ccccc3)cc2)c2ccc(NS(=O)(=O)c3ccccc3)cc2)c([N+](=O)[O-])c1`, in experiment [1], inhibition was half-maximal at 6 µg/mL (≈ 8.92 µM) (IC50).

Consider `O=[N+]([O-])c1ccc(NN=C(c2ccc(O)cc2)c2ccc(O)cc2)c([N+](=O)[O-])c1` [SIVIFENE], for which the IC50 in experiment [1] is 3.2 µg/mL (≈ 8.11 µM). The Binding intensity entry was “No change” in experiment [2], 20% in experiment [5] and 50% in experiment [7].

Take `Nc1ccc(C(=NNc2ccc([N+](=O)[O-])cc2[N+](=O)[O-])c2ccc(N)cc2)cc1`: half-maximal inhibition in experiment [1] (IC50) required 5 µg/mL (≈ 12.7 µM). The Binding intensity result in experiment [2] was “No change”; in experiment [3] it was “No change”; in experiment [7] it was 25%.

`O=C1NC(=O)C(/C(=N\Nc2ccc([N+](=O)[O-])cc2[N+](=O)[O-])c2ccc(O)cc2)C(=O)N1` displayed an IC50 in experiment [1] of over 10 µg/mL. In addition, the Binding intensity entry in experiment [2] and in experiment [3] was “No change” in each case. In addition, the Binding intensity entry in experiment [4] is “inactive”.

The molecule `CN1C(=O)C(C(c2ccnc3ccccc23)C2C(=O)N(C)C(=O)N(C)C2=O)C(=O)N(C)C1=O` returned an IC50 in experiment [1] of over 10 µg/mL.
